# Measured values from US20060030603A1, “Novel aryl urea analogs and use thereof as antibacterial agents” (priority 2004, published 2006).
# Read-outs that look alike come from different tables or passages of the source.
# What was measured:
# [1] = system: S. pyogenes ATCC 49399; assay: MIC assay, S. pyogenes; assay type: cell-based
# Method: (§1) In vitro structure/activity relationship (“SAR”) tests were performed according to the following procedure: MIC assays were carried out in a 150 μL volume in duplicate in 96-well clear flat-bottom plates. The bacterial suspension from an overnight culture growth in the appropriate medium was added to a solution of test compound in 0.5% DMSO in water. Final bacterial inoculum was approximate 10^3-10^4 CFU/well. The percentage growth of the bacteria in the test wells relative to that observed for a control well containing no compound was determined by measuring absorbance at 595 nm (A595) after 20-24 h at 37° C. […] The bacterial strains used for the assays include S. aureus ATCC 13709, S. pyogenes ATCC 49399, E. faecalis ATCC 29212, E. faecium ATCC 6569, E. coli ATCC 25922, K. pneumoniae ATCC 13383, P. vulgaris ATCC 8427, P. aeruginosa ATCC 25416. The results of the in vitro SAR tests are in Tables 1-3.
# [2] = system: S. aureus ATCC 13709; assay: MIC assay, S. aureus; assay type: cell-based
# Method: as §1
# [3] = system: E. faecalis ATCC 29212; assay: MIC assay, E. faecalis; assay type: cell-based
# Method: as §1
# [4] = system: P. aeruginosa ATCC 25416; assay: MIC assay, P. aeruginosa; assay type: cell-based
# Method: as §1
# [5] = log P; assay type: physicochemical
# [6] = system: K. pneumoniae ATCC 13383; assay: MIC assay, K. pneumoniae; assay type: cell-based
# Method: as §1
# [7] = system: E. coli ATCC 25922; assay: MIC assay, E. coli; assay type: cell-based
# Method: as §1
# [8] = system: E. faecium ATCC 6569; assay: MIC assay, E. faecium; assay type: cell-based
# Method: as §1
# [9] = system: P. vulgaris ATCC 8427; assay: MIC assay, P. vulgaris; assay type: cell-based
# Method: as §1
# [10] = MIT HUH-7 CC50 48h cytotoxicity; assay type: cell-based; conditions: human, HUH-7 cells; HUH-7, 48h
# [11] = Acute Toxicity Study (maximum tolerated dose); assay type: in vivo; conditions: observed seven days
# Method: Acute Toxicity Study: The maximum tolerated dose for either compound 12e or 14b was determined by administering the compound from 150 mg/kg down to 19 mg/kg given either intraperitoneally (IP) or subcutaneously (subQ). […] On autopsy some of the compound appeared to precipitate at the injection site thereby reducing the effective dose. Via the IP route compound 12e was toxic down to 37 mg/kg and compound 14b was only toxic at 150 mg/kg.
# [12] = system: S. aureus (ATCC 13709); assay: Mouse Protection Assay (lethal murine model of bacterial infection); assay type: in vivo, ICR-CD-1 female mice; conditions: 1 h and 3 h post infection, one week, 14b HCl salt, 12e lactate salt
# Method: The in vivo tests were preformed according to the following procedure:
# Mouse Protection Assay: 10 mice/dose group (ICR-CD-1 female mice 18-20 grams, Charles River) were infected with a lethal dose (10^6 CFU/mouse) of S. aureus (ATCC 13709) suspended in 7.5% hog Gastric Mucin IP. The infected animals were treated at 1 h and 3 h post infection with either compound 12e (lactate salt) from 37 mg/kg down to 2.3 mg/kg or compound 14b (HCl salt) from 75 mg/kg down to 2.3 mg/kg (0.1 mL/mouse). The positive control drug was Vancomycin (Eli Lilly) 1 mg/kg.
# [13] = Streptococcus pyogenes, ATCC49399; read-out: MIC S. pyogenes ATCC 49399
# [14] = Staphylococcus aureus, ATCC13709, Table 2, benzylamino group modified analogs, read-out: MIC S. aureus
# [15] = Staphylococcus aureus, ATCC13709, Table 4, read-out: MIC S. aureus ATCC 13709
# [16] = Enterococcus faecalis, ATCC29212; read-out: MIC E. faecalis ATCC 29212
# [17] = Pseudomonas aeruginosa, ATCC25416; read-out: MIC P. aeruginosa ATCC 25416
# [18] = Klebsiella pneumoniae, ATCC13383; read-out: MIC K. pneumoniae ATCC 13383
# [19] = Escherichia coli, ATCC25922; read-out: MIC E. coli ATCC 25922
# [20] = Enterococcus faecium, ATCC6569; read-out: MIC E. faecium ATCC 6569
# [21] = Proteus vulgaris, ATCC8427; read-out: MIC P. vulgaris ATCC 8427
logP [5],"MIC [1, 13] [µM]","MIC [2, 14] [µM]","MIC [2, 15] [µM]","MIC [3, 16] [µM]","MIC [4, 17] [µM]","MIC [6, 18] [µM]","MIC [7, 19] [µM]","MIC [8, 20] [µM]","MIC [9, 21] [µM]",SMILES,CC50 at 48 h [10] [µM],further results
4.77,3 to 6,3 to 6,3 to 6,3 to 6,> 100,6 to 12,6 to 12,> 100,12 to 25,"O=C(NCCCNCc1ccc(Oc2ccccc2)cc1)Nc1ccc(C(F)(F)F)cc1 [12h, 1-[3-(4-Phenoxy-benzylamino)-propyl]-3-(4-trifluoromethyl-phenyl)-urea]",12.5 to 25,–
4.94,3 to 6,3 to 6,3 to 6,6 to 12,> 100,3 to 6,6 to 12,3 to 6,12 to 25,"CC(C)(C)c1ccc(CNCCCNC(=O)Nc2ccc(C(F)(F)F)cc2)cc1 [12i, 1-[3-(4-tert-Butyl-benzylamino)-propyl]-3-(4-trifluoromethyl-phenyl)-urea]",–,–
–,–,–,–,–,–,–,–,–,–,O=C(NCCCNCc1ccc(Cl)c(Cl)c1)Nc1ccc(C(F)(F)F)cc1 [12q],–,"MIC S. aureus ([2]; Table 2, benzylamino group modified analogs): 3 to 6 µM"
–,–,–,–,–,–,–,–,–,–,O=C(NCCCNCc1cc(Br)cc(Br)c1O)Nc1ccc(C(F)(F)F)cc1 [12r],–,"MIC ([2]; Table 2, benzylamino group modified analogs, read-out: MIC S. aureus): >100 µM"
5.1,3 to 6,3 to 6,3 to 6,6 to 12,> 100,3 to 6,12 to 25,6 to 12,12 to 25,"CCOc1c(Br)cc(Br)cc1CNCCCNC(=O)Nc1ccc(C(F)(F)F)cc1 [12s, 1-[3-(3,5-Dibromo-2-ethoxy-benzylamino)-propyl]-3-(4-trifluoromethyl-phenyl)-urea]",50 to 100,–

SMILES,logP [5],"MIC [1, 13] [µM]","MIC [2, 14] [µM]","MIC [2, 15] [µM]","MIC [3, 16] [µM]","MIC [4, 17] [µM]","MIC [6, 18] [µM]","MIC [7, 19] [µM]","MIC [8, 20] [µM]","MIC [9, 21] [µM]",CC50 at 48 h [10] [µM],further results
"O=C(NCCCNCc1cc(Br)cc(Br)c1)Nc1ccc(Cl)c(Cl)c1 [9f, 1-[3-(3,5-Dibromo-benzylamino)-propyl]-3-(3,4-dichloro-phenyl)-urea]",4.89,–,–,–,–,–,–,–,–,–,–,"MIC ([1]; Streptococcus pyogenes, ATCC49399, read-out: MIC S. pyogenes ATCC 49399): 6 to 12 µM; MIC ([2]; Staphylococcus aureus, ATCC13709, read-out: MIC S. aureus): 3 to 6 µM; MIC ([2]; Staphylococcus aureus, ATCC13709, read-out: MIC S. aureus ATCC 13709): 3 to 6 µM; MIC ([3]; Enterococcus faecalis, ATCC29212, read-out: MIC E. faecalis ATCC 29212): 6 to 12 µM; MIC ([4]; Pseudomonas aeruginosa, ATCC25416, read-out: MIC P. aeruginosa ATCC 25416): > 100 µM; MIC ([6]; Klebsiella pneumoniae, ATCC13383, read-out: MIC K. pneumoniae ATCC 13383): 6 to 12 µM; MIC ([7]; Escherichia coli, ATCC25922, read-out: MIC E. coli ATCC 25922): 12 to 25 µM; MIC ([8]; Enterococcus faecium, ATCC6569, read-out: MIC E. faecium ATCC 6569): > 100 µM; MIC ([9]; Proteus vulgaris, ATCC8427, read-out: MIC P. vulgaris ATCC 8427): 12 to 25 µM"
"O=C(NCCCNCc1ccc(-c2ccccc2)cc1)Nc1ccc(C(F)(F)F)cc1 [12e, 1-{3-[(Biphenyl-4-ylmethyl)-amino]-propyl}-3-(4-trifluoromethyl-phenyl)-urea]",4.91,3 to 6,3 to 6,3 to 6,> 100,> 100,6 to 12,6 to 12,> 100,12 to 25,25 to 50,"toxic dose via the IP route ([11]; intraperitoneal, 150 down to 19 mg/kg tested): ≥ 37 mg/kg; survival in the subQ group ([11]; subcutaneous, 150 down to 19 mg/kg, compound appeared to precipitate at injection site): all animals survived at all doses tested; Mice Alive/Total ([12]; 2.3 × 2 mg/Kg): 0/10; Mice Alive/Total ([12]; 4.7 × 2 mg/Kg): 2/10; Mice Alive/Total ([12]; 9.4 × 2 mg/Kg): 4/10; Mice Alive/Total ([12]; 18.8 × 2 mg/Kg): 3/10; Mice Alive/Total ([12]; 37.5 × 2 mg/Kg): 3/10"
